Source: US20210047324A1 (Aptinyx Inc., priority 2018, published 2021)

Legend:
NMDAR2A = target: T1, NMDAR2A (Homo sapiens, UniProt Q12879); experiment: NMDAR agonist assay, [3H]MK-801 binding, NMDAR2A expressing HEK cell membranes; assay type: biochemical; design: key to NMDAR2A B: log EC50: 0=−; ≥1×10^−9 M (e.g., −8)=+; <1×10^−9 M (e.g., −10)=++; conditions: 50 μM glutamate; for Emax: 0.25 h, relative to 1 mM glycine, read-out: NMDAR2A A: % maximal [3H]MK-801 binding relative to 1 mM glycine
T1 construct: expressed in transfected cells; host or cells: HEK cells (membrane extract)
In short: (§1)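 Membranes from HEK cells (300 μg protein) preincubated 15 min with 50 μM glutamate plus compound (1×10^−15–1×10^−7 M) or 1 mM glycine, then with 0.3 μCi [3H]MK-801 for 15 min at 25° C. (nonequilibrium); filter-bound DPM, baseline-subtracted, expressed as % of 1 mM glycine; EC50 and % maximum from three-parameter fit.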

NMDAR2B = target: T2, NMDAR2B (Homo sapiens, UniProt Q13224); experiment: NMDAR agonist assay, [3H]MK-801 binding, NMDAR2B expressing HEK cell membranes; assay type: biochemical; conditions: 50 μM glutamate; for EC50: read-out: NMDAR2B B: log EC50 (converted); for Emax: relative to 1 mM glycine, read-out: NMDAR2B A: % maximal [3H]MK-801 binding relative to 1 mM glycine
T2 construct: expressed in transfected cells; host or cells: HEK cells (membrane extract)
In short: as §1

NMDAR2C = target: T3, NMDAR2C (Homo sapiens, UniProt Q14957); experiment: NMDAR agonist assay, [3H]MK-801 binding, NMDAR2C expressing HEK cell membranes; assay type: biochemical; conditions: 50 μM glutamate; for EC50: read-out: NMDAR2C B: log EC50 (converted)
T3 construct: expressed in transfected cells; host or cells: HEK cells (membrane extract)
Procedure: (§2) Assays were conducted as described by Moskal et al., “GLYX-13: a monoclonal antibody-derived peptide that acts as an N-methyl-D-aspartate receptor modulator,” Neuropharmacology, 49, 1077-87, 2005. These studies were designed to determine if the test compounds act to facilitate NMDAR activation in NMDAR2A, NMDAR2B, NMDAR2C or NMDAR2D expressing HEK cell membranes as measured by increases in [^3H]MK-801 binding.
(§3) In the assay, 300 μg of NMDAR expressing HEK cell membrane extract protein was preincubated for 15 minutes at […] in the presence of saturating concentrations of glutamate (50 μM) and varying concentrations of test compound (1×10^−15M-1×10^−7M), or 1 mM glycine. Following the addition of 0.3 μCi of [3H]MK-801 (22.5 Ci/mmol), reactions were again incubated for 15 minutes at 25° C. (nonequilibrium conditions). Bound and free [3H]MK-801 were separated via rapid filtration using a Brandel apparatus.
(§4) In analyzing the data, the DPM (disintegrations per minute) of [3H]MK-801 remaining on the filter were measured for each concentration of test compound or for 1 mM glycine. The DPM values for each concentration of a ligand (N=2) were averaged. The baseline value was determined from the best fit curve of the DPM values modeled using the GraphPad program and the log(agonist) vs. response (three parameters) algorithm was then subtracted from all points in the dataset. The % maximal [^3H]MK-801 binding was then calculated relative to that of 1 mM glycine: all baseline subtracted DPM values were divided by the average value for 1 mM glycine. The EC50 and % maximal activity were then obtained from the best fit curve of the % maximal [3H]MK-801 binding data modelled using the GraphPad program and the log(agonist) vs. response (three parameters) algorithm.
(§5) The tables below summarize the results for the wild type […] NMDAR2A, NMDAR2B, NMDAR2C, and NMDAR2D, and whether the compound is not an agonist (−), is an agonist (+), or is a strong agonist (++), where column A is based on the % maximal [3H]MK-801 binding relative to 1 mM glycine (−=0; <100%=+; and >100%=++); and column B is based on log EC50 values (0=−; ≥1×10^−9 M (e.g., −8)=+; and <1×10^−9 M (e.g., −10)=++).

NMDAR2D [1] = target: T4, NMDAR2D (Homo sapiens, UniProt O15399); experiment: NMDAR agonist assay, [3H]MK-801 binding, NMDAR2D expressing HEK cell membranes; assay type: biochemical; conditions: 50 μM glutamate; relative to 1 mM glycine
T4 construct: expressed in transfected cells; host or cells: HEK cells (membrane extract)
Procedure: as §2, §3, §4, §5

NMDAR2D [2] = target: T5, NMDAR2D (Homo sapiens, UniProt O15399+Q05586); experiment: as above; assay type: biochemical; conditions: 50 μM glutamate; read-out: NMDAR2D B: log EC50 (converted)
T5 construct: expressed in transfected cells; host or cells: HEK cells (membrane extract)
Procedure: as §2, §3, §4, §5

[3] = IV pharmacokinetics in Sprague Dawley rats; assay type: in vivo; conditions: Sprague-Dawley, rat, in vivo, iv, 2 mg/kg, normal saline; for Cmax: read-out: Cmax; for Vd: read-out: Vss
Procedure: Sprague Dawley rats were dosed intravenously using a normal saline formulation containing 2 mg/kg of the compounds identified in the below table. The table below summarizes the results of the IV pharmacokinetics.

[4] = Oral pharmacokinetics in Sprague Dawley rats (plasma, brain, CSF); assay type: in vivo; conditions: rat, 10 mg/kg; for Tmax / AUC(0-t) / bioavailability / Cmax: Sprague-Dawley, po, plasma; for Tmax / AUC(0-t) / Cmax / CSF Cmax / Brain Cmax: per os; for Tmax: read-out: Tmax; for bioavailability: per os 10 mg/kg; for Cmax: read-out: Cmax
Procedure: In another experiment, Sprague Dawley rats were dosed per os (oral gavage) using a normal saline formulation containing 10 mg/kg of the compounds identified in the table below. Plasma, brain, and CSF samples were analyzed at various time points over a 24 hour period. The table below summarizes the results of the oral pharmacokinetics, where the first three values (Tmax, Cmax and AUClast) are plasma values.

Sprague Dawley rats = experiment: Porsolt forced swim test; assay type: in vivo; conditions: 0.1 mg/kg
Procedure: A non-clinical in vivo pharmacology study (Porsolt assay) was performed to measure antidepressant-like effects. The study allowed for the evaluation of the effects of each compound on the Porsolt forced swim test as assessed by the rats' response (reduced floating time) during a 5-minute swimming test.
Male 2-3 month old Sprague Dawley rats were used (Harlan, Indianapolis, Ind.). Rats were housed in Lucite cages with aspen wood chip bedding, maintained on a 12:12 light:dark cycle (lights on at 5 AM), and given ad libitum access to Purina lab chow (USA) and tap water throughout the study.
The Porsolt forced swim test adapted for use in rats was performed as described by Burgdorf et al., (The long-lasting antidepressant effects of rapastinel (GLYX-13) are associated with a metaplasticity process in the medial prefrontal cortex and hippocampus. Neuroscience 308:202-211, 2015). Animals were placed in a 46 cm tall×20 cm in diameter clear glass tube filled to 30 cm with tap water (23±1° C.) for 15 min on the first day (habituation) and 5 min on the subsequent test day. Animals were tested 1 h or 24 h post-dosing with the test compounds or vehicle control (0.5% sodium carboxymethyl cellulose in 0.9% sterile saline). A subset of compounds tested at 1 h post-dosing was tested again 1 wk post-dosing. Animals received a 15 min habituation session 1 day before the first 5 min test. Water was changed after every other animal. Animals were videotaped, and floating time as defined as the minimal amount of effort required to keep the animals head above water was scored offline by a blinded experimenter with high inter-rater reliability (Pearson's r >0.9).

[5] = Microsomal stability (Human); assay type: in vitro ADME; conditions: after 60 minutes
Procedure: (§6) Microsomal stability of disclosed compounds was investigated. The following table indicates the percent of compound remaining after 60 minutes.

[6] = Microsomal stability (Rat); assay type: in vitro ADME; conditions: after 60 minutes
Procedure: as §6

Plasma stability (Human) = assay type: in vitro ADME; conditions: after 60 minutes
Procedure: (§7) Plasma stability of disclosed compounds was investigated. The following table indicates the percent of compound remaining after 60 minutes.

Plasma stability (Rat) = assay type: in vitro ADME; conditions: after 60 minutes
Procedure: as §7

T3 sequence (Q14957 20-1233, species assumed, other chains not shown): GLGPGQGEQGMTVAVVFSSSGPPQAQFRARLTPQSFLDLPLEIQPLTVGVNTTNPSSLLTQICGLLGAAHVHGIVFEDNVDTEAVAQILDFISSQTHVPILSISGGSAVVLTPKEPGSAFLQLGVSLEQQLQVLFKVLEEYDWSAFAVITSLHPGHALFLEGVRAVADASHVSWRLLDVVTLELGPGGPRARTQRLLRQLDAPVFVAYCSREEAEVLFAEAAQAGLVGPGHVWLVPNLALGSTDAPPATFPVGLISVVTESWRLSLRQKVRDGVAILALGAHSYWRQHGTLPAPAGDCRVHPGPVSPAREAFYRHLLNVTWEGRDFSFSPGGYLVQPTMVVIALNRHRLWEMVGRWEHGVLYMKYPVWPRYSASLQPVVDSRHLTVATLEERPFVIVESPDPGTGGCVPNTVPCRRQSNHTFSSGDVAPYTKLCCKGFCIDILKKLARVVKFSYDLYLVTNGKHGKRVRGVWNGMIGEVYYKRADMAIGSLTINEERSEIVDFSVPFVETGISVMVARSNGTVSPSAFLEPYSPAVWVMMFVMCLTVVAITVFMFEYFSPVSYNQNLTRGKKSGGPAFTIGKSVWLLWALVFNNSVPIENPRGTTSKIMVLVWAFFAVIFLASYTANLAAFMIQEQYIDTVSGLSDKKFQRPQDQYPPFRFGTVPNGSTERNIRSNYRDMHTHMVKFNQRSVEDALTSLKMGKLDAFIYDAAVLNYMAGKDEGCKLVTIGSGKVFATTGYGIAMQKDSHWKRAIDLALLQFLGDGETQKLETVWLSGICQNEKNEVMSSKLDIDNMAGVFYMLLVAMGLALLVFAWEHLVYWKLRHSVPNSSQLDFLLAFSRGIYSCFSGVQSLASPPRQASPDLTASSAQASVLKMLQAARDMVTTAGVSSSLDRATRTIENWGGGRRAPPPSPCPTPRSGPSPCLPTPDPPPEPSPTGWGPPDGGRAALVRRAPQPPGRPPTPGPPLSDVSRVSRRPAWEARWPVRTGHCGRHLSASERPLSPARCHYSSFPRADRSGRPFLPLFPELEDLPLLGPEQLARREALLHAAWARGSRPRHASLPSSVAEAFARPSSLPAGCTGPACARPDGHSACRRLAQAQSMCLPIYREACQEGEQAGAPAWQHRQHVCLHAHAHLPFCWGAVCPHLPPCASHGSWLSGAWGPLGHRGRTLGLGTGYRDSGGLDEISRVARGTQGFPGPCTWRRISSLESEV
T4 sequence (O15399 28-1336, species assumed, other chains not shown): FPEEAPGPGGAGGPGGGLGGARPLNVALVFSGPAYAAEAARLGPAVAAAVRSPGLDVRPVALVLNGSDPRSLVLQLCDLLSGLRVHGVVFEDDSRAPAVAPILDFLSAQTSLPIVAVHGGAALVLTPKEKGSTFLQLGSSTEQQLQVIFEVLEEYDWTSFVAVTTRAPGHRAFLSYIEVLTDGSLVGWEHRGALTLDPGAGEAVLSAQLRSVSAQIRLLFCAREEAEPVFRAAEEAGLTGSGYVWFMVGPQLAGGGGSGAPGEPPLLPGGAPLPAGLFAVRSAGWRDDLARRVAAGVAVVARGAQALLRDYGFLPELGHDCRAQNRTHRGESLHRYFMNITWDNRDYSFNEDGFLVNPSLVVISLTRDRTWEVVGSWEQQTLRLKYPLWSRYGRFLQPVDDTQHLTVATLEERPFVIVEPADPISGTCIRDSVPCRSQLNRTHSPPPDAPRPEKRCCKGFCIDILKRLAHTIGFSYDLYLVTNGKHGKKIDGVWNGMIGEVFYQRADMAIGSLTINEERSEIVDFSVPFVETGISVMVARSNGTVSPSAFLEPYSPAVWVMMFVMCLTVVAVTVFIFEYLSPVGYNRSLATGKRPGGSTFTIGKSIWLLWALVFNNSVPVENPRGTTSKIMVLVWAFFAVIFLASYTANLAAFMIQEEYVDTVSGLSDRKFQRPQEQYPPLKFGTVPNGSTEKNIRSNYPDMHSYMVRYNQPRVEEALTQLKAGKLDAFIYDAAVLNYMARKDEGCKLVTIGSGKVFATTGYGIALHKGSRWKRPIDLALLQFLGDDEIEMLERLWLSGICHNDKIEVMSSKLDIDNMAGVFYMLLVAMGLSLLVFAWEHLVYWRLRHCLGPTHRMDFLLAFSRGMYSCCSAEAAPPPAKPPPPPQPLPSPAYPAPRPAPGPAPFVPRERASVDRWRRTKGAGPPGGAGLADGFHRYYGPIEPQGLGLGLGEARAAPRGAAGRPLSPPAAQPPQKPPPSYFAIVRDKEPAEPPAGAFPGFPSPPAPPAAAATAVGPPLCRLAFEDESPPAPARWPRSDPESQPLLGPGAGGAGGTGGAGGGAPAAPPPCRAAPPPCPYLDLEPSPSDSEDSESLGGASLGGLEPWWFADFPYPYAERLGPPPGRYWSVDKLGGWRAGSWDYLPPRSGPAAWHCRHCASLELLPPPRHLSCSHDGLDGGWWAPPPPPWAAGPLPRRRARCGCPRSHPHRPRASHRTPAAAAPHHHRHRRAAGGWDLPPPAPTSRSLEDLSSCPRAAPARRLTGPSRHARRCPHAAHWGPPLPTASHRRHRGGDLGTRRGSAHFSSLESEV
T5 sequence (O15399 28-1336, species assumed, other chains not shown): as above
T1 sequence (Q12879 23-1464, species assumed, other chains not shown): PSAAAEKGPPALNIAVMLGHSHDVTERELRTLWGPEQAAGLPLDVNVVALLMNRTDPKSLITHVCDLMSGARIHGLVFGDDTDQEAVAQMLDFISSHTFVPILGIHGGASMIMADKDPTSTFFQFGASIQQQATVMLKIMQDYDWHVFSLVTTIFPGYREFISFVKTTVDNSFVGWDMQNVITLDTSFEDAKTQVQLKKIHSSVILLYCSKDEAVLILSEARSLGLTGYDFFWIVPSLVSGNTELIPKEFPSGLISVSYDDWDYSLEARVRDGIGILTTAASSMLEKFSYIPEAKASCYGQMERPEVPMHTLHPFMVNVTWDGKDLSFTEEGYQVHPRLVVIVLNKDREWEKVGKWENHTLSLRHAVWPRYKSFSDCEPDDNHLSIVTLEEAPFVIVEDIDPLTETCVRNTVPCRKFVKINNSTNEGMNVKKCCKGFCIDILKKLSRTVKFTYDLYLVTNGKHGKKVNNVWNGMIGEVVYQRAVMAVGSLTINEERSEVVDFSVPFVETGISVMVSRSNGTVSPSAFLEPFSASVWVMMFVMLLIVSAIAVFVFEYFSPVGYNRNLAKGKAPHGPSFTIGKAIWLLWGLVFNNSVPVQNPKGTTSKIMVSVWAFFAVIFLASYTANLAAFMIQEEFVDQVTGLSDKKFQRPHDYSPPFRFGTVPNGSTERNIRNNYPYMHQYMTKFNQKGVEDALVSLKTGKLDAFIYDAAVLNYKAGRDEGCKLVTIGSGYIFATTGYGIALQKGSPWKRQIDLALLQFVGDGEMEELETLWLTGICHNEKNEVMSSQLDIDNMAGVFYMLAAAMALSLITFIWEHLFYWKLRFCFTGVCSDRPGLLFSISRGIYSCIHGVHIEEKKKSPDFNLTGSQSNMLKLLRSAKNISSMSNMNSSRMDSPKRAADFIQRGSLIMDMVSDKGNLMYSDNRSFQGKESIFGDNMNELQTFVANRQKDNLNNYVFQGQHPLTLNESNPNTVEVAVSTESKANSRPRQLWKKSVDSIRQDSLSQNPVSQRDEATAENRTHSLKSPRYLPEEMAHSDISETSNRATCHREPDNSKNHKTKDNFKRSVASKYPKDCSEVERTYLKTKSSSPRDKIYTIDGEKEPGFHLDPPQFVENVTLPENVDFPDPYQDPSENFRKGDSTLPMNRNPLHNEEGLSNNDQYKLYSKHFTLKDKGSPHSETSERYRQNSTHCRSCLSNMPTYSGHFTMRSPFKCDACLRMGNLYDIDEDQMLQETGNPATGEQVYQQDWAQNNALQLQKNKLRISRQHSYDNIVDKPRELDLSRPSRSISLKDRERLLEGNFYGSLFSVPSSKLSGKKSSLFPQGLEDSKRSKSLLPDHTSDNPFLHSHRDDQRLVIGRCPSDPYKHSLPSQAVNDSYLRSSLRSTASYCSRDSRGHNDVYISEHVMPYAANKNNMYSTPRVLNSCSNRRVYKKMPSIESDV

| SMILES | Emax (NMDAR2A) | EC50 (NMDAR2B) | Emax (NMDAR2B) | EC50 (NMDAR2C) | NMDAR2C A: % maximal [3H]MK-801 binding relative to 1 mM glycine (NMDAR2C) | NMDAR2D A: % maximal [3H]MK-801 binding relative to 1 mM glycine (NMDAR2D [1]) | EC50 (NMDAR2D [2]) | AUC(0-t) [3] | clearance [3] | half-life [3] | Cmax [3] | Vd [3] | Tmax [4] | AUC(0-t) [4] | bioavailability [4] | Cmax [4] | CSF Cmax [4] | Brain Cmax [4] | % reduction in float time (Sprague Dawley rats; 1 h post-dose) | Significance vs. vehicle (Sprague Dawley rats; 1 h post-dose) | further results |
| --- | --- | --- | --- | --- | --- | --- | --- | --- | --- | --- | --- | --- | --- | --- | --- | --- | --- | --- | --- | --- | --- |
| CC(C)(C)OC(=O)N1CCCC12CCCNC2=O (single isomer, unassigned) [EV-1, tert-butyl 6-oxo-1,7-diazaspiro[4.5]decane-1-carboxylate] | < 100% | < 1 nM | < 100% | < 1 nM | + (<100%=+) | + (<100%=+) | < 1 nM | 1270 ng·h/mL | 26.2 mL/min/kg | 25.2 min | 2730 ng/mL | 0.72 L/kg | 15 min | 2850 ng·h/mL | 45% | 3690 ng/mL | 1414.8 ng/mL | 1457.4 ng/mL | 53% | Yes | EC50 (NMDAR2A; read-out: NMDAR2A B: log EC50 (converted)): < 1 nM; % reduction in float time (Sprague Dawley rats; 24 h post-dose): 45%; Significance vs. vehicle (Sprague Dawley rats; 24 h post-dose): Yes; Microsomal (Human): percent of compound remaining [5]: 95%; Microsomal (Rat): percent of compound remaining [6]: 100%; Plasma (Human): percent of compound remaining (Plasma stability (Human)): 98%; Plasma (Rat): percent of compound remaining (Plasma stability (Rat)): 94% |
| O=C1NCCCC[C@@]12CCCN2 [AU-2, (R)-1,7-diazaspiro[4.6]undecan-6-one] | 0% | < 1 nM | < 100% | < 1 nM | + (<100%=+) | + (<100%=+) | < 1 nM |  |  |  |  |  |  |  |  |  |  |  |  |  | NMDAR2A B: log EC50 (NMDAR2A): − |
| O=C1NCCCC12CCCN2 (stereo not drawn) [EU-2, 1,7-diazaspiro[4.5]decan-6-one] |  | < 1 nM |  | < 1 nM | + (<100%=+) | ++ (>100%=++) | < 1 nM | 4000 ng·h/mL | 8.79 mL/min/kg | 96.6 min | 2140 ng/mL | 0.94 L/kg | 60 min | 4430 ng·h/mL | 100% | 1860 ng/mL | 436.7 ng/mL | 593.1 ng/mL | 55% | Yes | NMDAR2A B: log EC50 (NMDAR2A): −; % reduction in float time (Sprague Dawley rats; 1 wk post-dose): 46%; Significance vs. vehicle (Sprague Dawley rats; 1 wk post-dose): Yes; Microsomal (Human): percent of compound remaining [5]: 100%; Microsomal (Rat): percent of compound remaining [6]: 94%; Plasma (Human): percent of compound remaining (Plasma stability (Human)): 74%; Plasma (Rat): percent of compound remaining (Plasma stability (Rat)): 95% |
